Data: patent publication US6503909B1, “Pyrazine compounds” (SmithKline Beecham Corporation, priority 1998, dated 2003)

Test system: male Han Wistar rats
Assay: rat maximal electroshock test (MES)
Format: in vivo
Description: For example, male Han Wistar rats (150-200 grms) were dosed i.p. with a suspension of the test compound in 0.25% methylcellulose 2 hr prior to test. A visual observation was carried out just prior to testing for the presence of ataxia. Using auricular electrodes a current of 200 mA, duration 300 millisec, was applied and the presence or absence of hind limb extension noted.

Structure (SMILES): Nc1nnc(-c2cccc(Cl)c2Cl)c(N)n1 [lamotrigine]
- ED50 (Rattus norvegicus, ip, dosed i.p. as suspension in 0.25% methylcellulose 2 hr prior to test, 200 mA, 300 millisec, auricular electrodes, read-out: ED50 (MES, hind limb extension)): 6.1 mg/kg
- therapeutic index (ratio of the ataxia ED50 and MES ED50) (i.p., 2 hr prior to test, ataxia by visual observation): 3.3
